Test results: ChEMBL document CHEMBL1201862, “PubChem BioAssay data set” (2004)
Calls of active or inactive are those of the source.

Legend:
[1] = A cytotoxicity screen of small molecule inhibitors of the PhoP region in Salmonella typhi identified in the primary screen. [Related pubchem assays: 1850, 1864, 1985 ]; assay type: functional
[2] = test system: Streptococcus; experiment: GAS UMAA2166 growth inhibition – luminescence, BacTiterGlo, counter-screen for streptokinase expression inhibitor project, dose response (AID 1915); assay type: functional, organism-based;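 note: potency for reduction of bacterial viability or growth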
[3] = target: T1, Hexokinase HKDC1 (Homo sapiens, UniProt Q2TB90); experiment: inhibition of HKDC1 glucose phosphorylation – biochemical, W721R variant, dose response (AID 504729); assay type: functional
T1 sequence (Q2TB90 whole entry): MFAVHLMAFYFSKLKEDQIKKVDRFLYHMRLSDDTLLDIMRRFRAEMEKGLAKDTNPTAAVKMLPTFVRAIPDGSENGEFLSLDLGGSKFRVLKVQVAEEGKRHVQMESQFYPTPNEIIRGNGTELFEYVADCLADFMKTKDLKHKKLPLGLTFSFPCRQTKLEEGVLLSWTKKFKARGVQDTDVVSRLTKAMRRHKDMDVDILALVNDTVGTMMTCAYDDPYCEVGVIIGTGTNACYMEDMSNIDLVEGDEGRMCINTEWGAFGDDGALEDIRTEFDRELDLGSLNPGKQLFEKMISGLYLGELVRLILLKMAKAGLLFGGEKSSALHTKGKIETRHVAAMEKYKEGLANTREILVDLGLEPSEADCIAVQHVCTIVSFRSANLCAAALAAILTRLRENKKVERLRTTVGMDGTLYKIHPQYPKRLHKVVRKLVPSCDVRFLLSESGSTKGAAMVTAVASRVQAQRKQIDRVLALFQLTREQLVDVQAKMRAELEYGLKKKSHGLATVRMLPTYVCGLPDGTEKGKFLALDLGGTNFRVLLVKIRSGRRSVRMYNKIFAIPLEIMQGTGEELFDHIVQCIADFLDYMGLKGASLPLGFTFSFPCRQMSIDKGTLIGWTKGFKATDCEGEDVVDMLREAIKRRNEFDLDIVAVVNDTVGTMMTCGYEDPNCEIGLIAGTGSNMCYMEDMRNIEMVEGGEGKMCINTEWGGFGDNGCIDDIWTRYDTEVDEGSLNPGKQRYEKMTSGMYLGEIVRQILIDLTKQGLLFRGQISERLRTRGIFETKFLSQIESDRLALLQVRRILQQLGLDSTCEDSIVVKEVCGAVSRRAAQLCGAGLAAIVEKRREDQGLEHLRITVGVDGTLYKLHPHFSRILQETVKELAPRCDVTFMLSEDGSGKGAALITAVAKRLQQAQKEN

[4] = test system: Streptococcus sp. 'group A'; experiment: Streptococcus pyogenes SK(-)GAS viability under kanamycin – luminescence, BacTiterGlo, confirmation, counter-screen for streptokinase expression inhibitor project, dose response (AID 1900); assay type: functional, organism-based
[5] = luciferase reporter signal suppression in cells – H4 neuroglioma cells, luminescence, dose response (AID 1990); assay type: functional, cell-based
[6] = HEK-293T viability loss after treatment – luminescence, T-cell screen hits, cytotoxicity control for TCR NF-kB inhibitor project, dose response (AID 489026); assay type: functional, cell-based;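 note: cells exposed to compound about 14 hours before the viability readout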
[7] = Luminescence-based counterscreen assay for KLF5 inhibitors: dose response cell-based high throughput screening assay to identify cytotoxic compounds using the IEC-6 intestinal epithelial cell line. [Related pubchem assays: 1700 (Primary screen.), 1834 (Confirmation screen.), 1858 (Summary AID.), 1905 (Counterscreen.)]; assay type: functional
[8] = alpha-synuclein stem-loop luciferase translation blockers – H4 neuroglioma cells, luminescence, confirmation (AID 1988); assay type: functional, cell-based
[9] = test system: INS1; experiment: INS-1E survival protection against cytokine death – cell-based, luminescence, retest, dose response (AID 449756); assay type: functional; settings: Rattus norvegicus;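 note: cell death triggered by IL-1 beta plus TNF-alpha plus IFN-gamma mixture; protective hits raise ATP signal compared with cytokine alone wells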
[10] = Luminescence Cell-Based Dose Response HTS to Identify Inhibitors of 5'UTR Stem-Loop Driven Prion Protein mRNA Translation in H4 Neuroglioblastoma Cells. [Related pubchem assays: 1827 (Project Summary), 1813 (Primary HTS)]; assay type: functional
[11] = A Cell Based Secondary Assay To Explore Cytotoxicity of Compounds that Sensitize Mycobacterium Tuberculosis to Beta-Lactam Antibiotics.; assay type: functional
[12] = target: X-box-binding protein 1 (Homo sapiens, UniProt P17861); assay type: functional, Cricetulus griseus;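 note: confirmatory dose-response counter-screen serving a CHOP assay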
X-box-binding protein 1, sequence (P17861 whole entry): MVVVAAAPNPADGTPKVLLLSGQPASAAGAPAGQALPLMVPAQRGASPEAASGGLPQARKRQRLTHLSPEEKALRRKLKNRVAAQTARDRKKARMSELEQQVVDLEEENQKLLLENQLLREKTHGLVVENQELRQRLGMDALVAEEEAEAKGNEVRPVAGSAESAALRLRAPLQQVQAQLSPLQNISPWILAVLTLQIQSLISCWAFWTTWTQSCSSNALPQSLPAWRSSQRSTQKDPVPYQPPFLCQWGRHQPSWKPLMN

[13] = target: T2, Corticotropin-releasing factor receptor 2/Corticotropin-releasing factor-binding protein (Homo sapiens, UniProt P24387+Q13324); experiment: activators of CRF receptor 2 with binding protein – uHTS hits, confirmation (AID 602473); assay type: functional; settings: read-out: EC50_Mean
T2 sequence (Q13324 whole entry): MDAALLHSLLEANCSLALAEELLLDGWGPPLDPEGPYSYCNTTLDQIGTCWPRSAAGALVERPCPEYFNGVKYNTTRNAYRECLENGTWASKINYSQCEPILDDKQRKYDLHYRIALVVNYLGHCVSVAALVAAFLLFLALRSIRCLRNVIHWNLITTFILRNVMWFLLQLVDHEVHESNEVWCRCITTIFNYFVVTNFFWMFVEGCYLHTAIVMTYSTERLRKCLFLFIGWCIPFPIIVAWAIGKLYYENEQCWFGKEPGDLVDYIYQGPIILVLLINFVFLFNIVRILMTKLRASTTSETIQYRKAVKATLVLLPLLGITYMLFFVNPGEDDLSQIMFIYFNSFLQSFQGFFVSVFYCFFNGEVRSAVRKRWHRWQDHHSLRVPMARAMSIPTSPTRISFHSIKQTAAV
T2 sequence (P24387 whole entry): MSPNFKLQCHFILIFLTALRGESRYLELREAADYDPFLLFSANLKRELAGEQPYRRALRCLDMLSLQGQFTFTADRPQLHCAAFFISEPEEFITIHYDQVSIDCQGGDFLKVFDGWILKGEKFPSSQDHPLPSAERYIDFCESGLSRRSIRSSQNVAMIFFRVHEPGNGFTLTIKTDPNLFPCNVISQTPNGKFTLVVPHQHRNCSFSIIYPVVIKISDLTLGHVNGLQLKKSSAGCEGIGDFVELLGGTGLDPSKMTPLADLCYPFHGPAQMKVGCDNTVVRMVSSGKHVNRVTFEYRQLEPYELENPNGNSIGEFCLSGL

[14] = target: Peroxisome proliferator-activated receptor gamma/Nuclear receptor coactivator 3 (Homo sapiens, UniProt P37231); assay type: functional;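 note: agonist potency for raising coactivator recruitment to the receptor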
Peroxisome proliferator-activated receptor gamma/Nuclear receptor coactivator 3, sequence (P37231 whole entry): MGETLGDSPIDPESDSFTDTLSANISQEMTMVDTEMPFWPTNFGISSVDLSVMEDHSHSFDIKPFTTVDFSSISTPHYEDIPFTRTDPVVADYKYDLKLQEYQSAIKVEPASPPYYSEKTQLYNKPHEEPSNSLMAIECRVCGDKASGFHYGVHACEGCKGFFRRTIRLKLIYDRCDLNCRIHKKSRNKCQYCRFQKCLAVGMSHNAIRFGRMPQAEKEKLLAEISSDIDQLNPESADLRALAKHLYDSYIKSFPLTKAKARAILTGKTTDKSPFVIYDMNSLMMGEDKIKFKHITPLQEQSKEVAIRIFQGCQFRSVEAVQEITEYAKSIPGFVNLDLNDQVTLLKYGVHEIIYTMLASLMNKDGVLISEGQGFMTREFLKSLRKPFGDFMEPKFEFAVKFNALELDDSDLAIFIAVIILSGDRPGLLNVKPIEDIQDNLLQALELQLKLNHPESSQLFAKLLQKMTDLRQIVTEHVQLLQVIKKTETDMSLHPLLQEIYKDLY
Peroxisome proliferator-activated receptor gamma/Nuclear receptor coactivator 3, sequence (Q9Y6Q9 whole entry, further chain): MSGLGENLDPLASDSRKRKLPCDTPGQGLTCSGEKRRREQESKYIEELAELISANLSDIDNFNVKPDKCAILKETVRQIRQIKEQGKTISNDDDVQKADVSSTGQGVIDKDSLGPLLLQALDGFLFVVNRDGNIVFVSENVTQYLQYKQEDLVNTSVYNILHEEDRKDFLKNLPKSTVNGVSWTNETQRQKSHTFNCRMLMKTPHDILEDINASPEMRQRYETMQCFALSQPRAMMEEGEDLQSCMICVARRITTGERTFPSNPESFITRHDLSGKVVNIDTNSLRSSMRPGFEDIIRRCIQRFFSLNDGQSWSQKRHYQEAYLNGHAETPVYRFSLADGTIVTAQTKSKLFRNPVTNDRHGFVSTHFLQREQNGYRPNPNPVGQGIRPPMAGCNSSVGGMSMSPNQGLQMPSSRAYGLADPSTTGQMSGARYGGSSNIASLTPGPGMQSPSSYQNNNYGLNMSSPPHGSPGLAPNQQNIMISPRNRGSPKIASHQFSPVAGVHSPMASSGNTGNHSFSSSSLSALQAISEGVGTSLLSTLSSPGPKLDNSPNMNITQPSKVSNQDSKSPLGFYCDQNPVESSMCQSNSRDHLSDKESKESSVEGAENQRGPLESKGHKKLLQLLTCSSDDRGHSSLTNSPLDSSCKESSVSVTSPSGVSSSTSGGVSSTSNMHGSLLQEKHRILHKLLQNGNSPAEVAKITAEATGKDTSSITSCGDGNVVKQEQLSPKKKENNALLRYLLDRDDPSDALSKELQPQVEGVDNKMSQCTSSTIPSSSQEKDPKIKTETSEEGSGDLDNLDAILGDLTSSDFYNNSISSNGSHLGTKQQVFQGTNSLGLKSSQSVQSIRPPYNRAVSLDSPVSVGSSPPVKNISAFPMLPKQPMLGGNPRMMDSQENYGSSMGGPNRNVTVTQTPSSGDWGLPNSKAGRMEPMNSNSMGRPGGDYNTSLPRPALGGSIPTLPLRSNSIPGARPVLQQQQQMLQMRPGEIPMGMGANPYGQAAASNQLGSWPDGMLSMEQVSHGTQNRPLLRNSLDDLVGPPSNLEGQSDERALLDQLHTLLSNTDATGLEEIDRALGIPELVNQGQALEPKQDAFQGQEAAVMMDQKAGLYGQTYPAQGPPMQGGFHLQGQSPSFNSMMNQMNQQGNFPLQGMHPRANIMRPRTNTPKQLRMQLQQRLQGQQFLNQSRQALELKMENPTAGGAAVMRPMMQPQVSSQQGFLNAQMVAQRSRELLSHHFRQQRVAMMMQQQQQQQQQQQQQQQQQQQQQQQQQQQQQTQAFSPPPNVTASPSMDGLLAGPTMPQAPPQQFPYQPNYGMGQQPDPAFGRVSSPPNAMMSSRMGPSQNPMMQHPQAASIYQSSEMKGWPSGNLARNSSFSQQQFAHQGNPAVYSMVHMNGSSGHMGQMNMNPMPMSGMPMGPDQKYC

[15] = target: Peroxisome proliferator-activated receptor gamma/Nuclear receptor coactivator 1 (Homo sapiens, UniProt P37231); assay type: functional;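 note: agonist potency as compounds enhance coactivator SRC-1 recruitment to PPARgamma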
[16] = target: Peroxisome proliferator-activated receptor gamma/Nuclear receptor coactivator 2 (Homo sapiens, UniProt P37231); assay type: functional;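 note: agonist potency for raising coactivator recruitment to the receptor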
Peroxisome proliferator-activated receptor gamma/Nuclear receptor coactivator 2, sequence (P37231 whole entry): as the sequence (P37231 whole entry) above
Peroxisome proliferator-activated receptor gamma/Nuclear receptor coactivator 2, sequence (Q15596 whole entry, further chain): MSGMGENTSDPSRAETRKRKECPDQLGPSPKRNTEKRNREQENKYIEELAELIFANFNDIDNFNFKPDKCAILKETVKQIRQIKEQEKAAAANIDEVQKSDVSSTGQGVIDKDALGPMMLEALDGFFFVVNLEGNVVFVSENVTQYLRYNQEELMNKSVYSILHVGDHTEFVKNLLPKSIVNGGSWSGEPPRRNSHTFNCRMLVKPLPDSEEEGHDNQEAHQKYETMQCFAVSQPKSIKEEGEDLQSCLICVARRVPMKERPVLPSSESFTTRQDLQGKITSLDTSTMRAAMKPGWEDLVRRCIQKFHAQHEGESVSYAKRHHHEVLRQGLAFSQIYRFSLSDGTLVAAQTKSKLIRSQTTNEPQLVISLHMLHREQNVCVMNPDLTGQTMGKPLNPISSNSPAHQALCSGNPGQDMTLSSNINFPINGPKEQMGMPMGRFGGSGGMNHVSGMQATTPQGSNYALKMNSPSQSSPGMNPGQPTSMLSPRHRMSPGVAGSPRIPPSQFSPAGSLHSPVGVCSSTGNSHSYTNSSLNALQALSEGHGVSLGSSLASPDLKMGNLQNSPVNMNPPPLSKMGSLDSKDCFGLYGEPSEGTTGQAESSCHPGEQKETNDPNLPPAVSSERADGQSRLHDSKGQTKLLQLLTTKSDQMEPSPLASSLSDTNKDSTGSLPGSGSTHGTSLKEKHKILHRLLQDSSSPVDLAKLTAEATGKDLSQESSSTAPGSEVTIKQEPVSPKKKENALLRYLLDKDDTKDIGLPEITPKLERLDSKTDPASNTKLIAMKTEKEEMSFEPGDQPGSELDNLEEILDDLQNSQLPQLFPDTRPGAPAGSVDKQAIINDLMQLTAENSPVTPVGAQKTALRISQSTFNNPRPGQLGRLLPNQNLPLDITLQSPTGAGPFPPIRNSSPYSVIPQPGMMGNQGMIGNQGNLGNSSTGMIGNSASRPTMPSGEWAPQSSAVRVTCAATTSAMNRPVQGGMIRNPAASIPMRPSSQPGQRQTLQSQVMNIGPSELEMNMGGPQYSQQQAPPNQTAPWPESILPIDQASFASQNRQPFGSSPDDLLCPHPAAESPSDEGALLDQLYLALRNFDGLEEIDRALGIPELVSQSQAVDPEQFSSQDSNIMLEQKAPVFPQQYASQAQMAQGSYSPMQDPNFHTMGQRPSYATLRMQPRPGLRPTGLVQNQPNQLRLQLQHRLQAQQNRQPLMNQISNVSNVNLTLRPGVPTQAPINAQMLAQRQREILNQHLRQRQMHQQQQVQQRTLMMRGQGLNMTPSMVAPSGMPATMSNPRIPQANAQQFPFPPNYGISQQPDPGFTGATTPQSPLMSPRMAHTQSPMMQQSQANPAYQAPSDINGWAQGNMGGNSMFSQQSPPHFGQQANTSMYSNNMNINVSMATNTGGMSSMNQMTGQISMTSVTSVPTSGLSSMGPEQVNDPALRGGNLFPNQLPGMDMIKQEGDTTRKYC

[17] = cells

O=C(N/N=C/C1CC=CCC1)c1cc(Br)ccc1O (stereo not drawn)
EC50 [1]: > 50 µM (active)

Cn1c2ccccc2c(=O)c2c(=O)n(-c3ccc(F)cc3)c(-c3cccs3)nc21
EC50 [2]: 9.21 µM (active) | IC50 [3]: 2.72 µM (active) | EC50 [4]: 9.47 µM (active)

O=C(/C=C/c1ccc(Cl)cc1Cl)NCc1ccncc1
EC50 [1]: > 50 µM (active)

C#Cc1ccc([C@@H]2C=C(C(=O)N3CCN(Cc4ccccc4)CC3)O[C@H](OCCCCO)C2)cc1
EC50 [5]: 9.88 µM (active) | IC50 [6]: > 80 µM (inactive) | IC50 [7]: > 39.8 µM (not active) | EC50 [8]: 7.64 µM (active) | AC50 [9]: 1.01 µM (active) | EC50 [10]: 9.17 µM (active)

COc1ccc(OC)c(-c2cc(C(=O)Nc3c(C)nn(Cc4ccccc4C)c3C)no2)c1
CC50 [11]: 34.7 µM (active)

CC1(c2ccc(OC(F)F)cc2)NC(=O)N(/N=C/c2c(O)ccc3ccccc23)C1=O (stereo not drawn)
Absolute IC50 (XBP1) [12]: 10 µM | EC50 [13]: > 53 µM (inactive)

CCc1ccc(OCC(=O)NNC(=O)CSc2ncnc3sc(C)c(C)c23)cc1
EC50 [14]: 33.8 µM (not active) | EC50 [15]: 28.8 µM (not active) | EC50 [16]: 25.7 µM (not active)

C/C(N)=C(/C#N)C(=O)COC(=O)c1cc2c(s1)CCCC2
IC50 [17]: 21.3 µM (active)
